According to ChEMBL document CHEMBL1122144, “(+/-)-4-Aryl-4,5-dihydro-3H-1,3-benzodiazepines. 1. Synthesis and evaluation of (+/-)-4,5-dihydro-2,3-dimethyl-4-phenyl-3H-1,3-benzodiazepine and analogues as potential antidepressant agents” (J Med Chem, 1982):

Legend:
Mus musculus [1] = assay: In vivo antidepressant activity assessed by prevention of tetrabenazine-induced ptosis in mice following i.p. administration.; type: functional
Rattus norvegicus [2] = assay: Compound was tested in vitro for beta -adrenergic sensitivity and administered to rats at 10 mg/kg, perorally, twice daily for 10 days.; type: functional; details: 240 h, route oral
Rattus norvegicus [3] = assay: Compound was screened in vivo for antidepressant activity by tryptamine seizure potentiation method in rat.; type: functional
Rattus norvegicus [4] = assay: In vivo for the inhibition of muricidal activity. The effective dose (intraperitoneally) required for the activity was determined in rat; type: functional; details: ip
Mus musculus [5] = assay: Prevention of tetrabenazine-induced ptosis in mice (ip); type: functional
Mus musculus [6] = assay: Inhibition of pentylenetetrazole lethality in mice (po); type: functional
Rattus norvegicus [7] = assay: Potentiation of 5-HT induced behavioral syndrome in pargyline-pretreated rats (ip); type: functional
Mus musculus [8] = assay: Prevention of amphetamine aggregation toxicity in mice (po); type: functional
Rattus norvegicus [9] = assay: Compound was screened in vivo for antidepressant activity by 5 HTP potentiation method in rat; type: functional
Rattus norvegicus [10] = assay: Compound was tested for beta -adrenergic sensitivity when administered to rats at 10 mg/kg, perorally, twice daily for 10 days.; type: functional; details: 240 h, route oral
Rattus norvegicus [11] = organism: Rattus norvegicus; assay: In vitro inhibition against neuronal uptake of serotonin in whole brain.; type: functional
Mus musculus [12] = assay: Compound was tested in vivo for antagonism of oxotremorine induced salivation in mouse.; type: functional
Rattus norvegicus [13] = organism: Rattus norvegicus; assay: In vitro inhibition against neuronal uptake of dopamine in rat striatum; type: functional
Mus musculus [14] = assay: In vivo inhibition of potentiation of yohimbine -induced toxicity in mouse; type: functional
Rattus norvegicus [15] = organism: Rattus norvegicus; assay: In vitro inhibition against neuronal uptake of norepinephrine in rat hypothalamus; type: functional
Rattus norvegicus [16] = organism: Rattus norvegicus; assay: In vitro inhibition against neuronal uptake of norepinephrine in rat whole brain; type: functional
Rattus norvegicus [17] = assay: In vivo effective dose for intraperitoneal administration required for the muricidal activity was determined in rat; type: functional; details: ip
Mus musculus [18] = assay: Compound was tested in vivo for antagonism of oxotremorine induced -tremors in mouse.; type: functional
Rattus norvegicus [19] = assay: Compound was screened in vivo for antidepressant activity by 5 HTP potentiation method in rat.; type: functional
[20] = Compound was tested in vitro for its ability to displace [3H]quinuclidine benzylate (QNB) from Muscarinic acetylcholine receptor on rat whole brain membranes.; type: cell membranes
Mus musculus [21] = assay: In vivo for the inhibition of potentiation of yohimbine -induced toxicity in mouse; type: functional
Mus musculus [22] = assay: Compound was tested in vivo for potential antidepressant activity which was assessed by its prevention of tetrabenazine-induced ptosis in mice; type: functional
Rattus norvegicus [23] = organism: Rattus norvegicus; assay: In vitro inhibition against neuronal uptake of dopamine in striatum.; type: functional
Rattus norvegicus [24] = organism: Rattus norvegicus; assay: In vitro inhibition against neuronal uptake of norepinephrine in whole brain; type: functional
Mus musculus [25] = organism: Mus musculus; assay: Compound was tested for physostigmine lethality in mouse.; type: functional
[26] = Mus musculus, ip, read-out: ED50

CCN1C(C)=Nc2ccccc2CC1c1ccccc1 (stereo not given)
ED50 (Mus musculus [1]; [26]): ~20 mg/kg

CC1=Nc2ccccc2CC(c2ccccc2)N1CC1CCCCC1 (stereo not given)
ED50 (Mus musculus [1]; [26]): ~20 mg/kg

CNCCCN1c2ccccc2CCc2ccccc21 [DESIPRAMINE]
inhibition in vivo at 10 mg/kg (Rattus norvegicus [2]): -50% | ED50 (Rattus norvegicus [3]): > 25 mg/kg | ED50 (Rattus norvegicus [4]): 8.2 mg/kg

CC1=NC(c2ccccc2)Cc2ccccc2N1C (stereo not given)
ED50 (Mus musculus [1]; [26]): > 20 mg/kg

c1ccc(C2=NC(c3ccccc3)Cc3ccccc3N2)cc1 (stereo not given)
ED50 (Mus musculus [1]; [26]): > 20 mg/kg

CCC1=NC(c2ccccc2)Cc2ccccc2N1 (stereo not given)
ED50 (Mus musculus [1]; [26]): > 5 mg/kg

CN1C(C2CC2)=Nc2ccccc2CC1c1ccccc1 (stereo not given)
ED50 (Mus musculus [1]; [26]): > 20 mg/kg

c1ccc(C2Cc3ccccc3NC(C3CC3)=N2)cc1 (stereo not given)
ED50 (Mus musculus [1]; [26]): > 20 mg/kg

CN1C=Nc2ccccc2CC1c1ccccc1 (stereo not given)
ED50 (Mus musculus [1]; [26]): 9.7 mg/kg

CC1=Nc2ccccc2CC(c2ccccc2)N1Cc1ccccc1 (stereo not given)
ED50 (Mus musculus [1]; [26]): > 20 mg/kg

CC(=O)C(Cc1ccccc1NCN1C(=O)CCC1=O)c1ccccc1 (stereo not given)
ED50 (Mus musculus [5]): > 20 mg/kg | ED50 (Mus musculus [6]): > 40 mg/kg | ED50 (Rattus norvegicus [7]): > 10 mg/kg | ED50 (Mus musculus [8]): > 20 mg/kg

CN1C(c2ccccc2)=Nc2ccccc2CC1c1ccccc1 (stereo not given)
ED50 (Mus musculus [1]; [26]): > 20 mg/kg

CNC(Cc1ccccc1[N+](=O)[O-])c1ccccc1 (stereo not given)
ED50 (Mus musculus [6]): > 40 mg/kg | ED50 (Rattus norvegicus [7]): > 10 mg/kg | ED50 (Mus musculus [8]): > 20 mg/kg

CCC1=Nc2ccccc2CC(c2ccccc2)N1C (stereo not given)
ED50 (Mus musculus [1]; [26]): 0.6 mg/kg

C1=NC(c2ccccc2)Cc2ccccc2N1 (stereo not given)
ED50 (Mus musculus [1]; [26]): ~20 mg/kg

CC1=Nc2ccccc2CC(c2ccccc2)N1C.Cl (stereo not given) [DAZEPINIL HYDROCHLORIDE]
ED50 (Rattus norvegicus [9]): > 10 mg/kg | inhibition in vivo at 10 mg/kg (Rattus norvegicus [10]): -44% | IC50 (Rattus norvegicus [11]): 8.4 µM | ED50 (Mus musculus [12]): > 25 mg/kg | IC50 (Rattus norvegicus [13]): 5.3 µM | ED50 (Mus musculus [14]): 5.9 mg/kg | ED50 (Mus musculus [1]): 2.1 mg/kg | ED50 (Mus musculus [1]; [26]): 1.5 mg/kg | IC50 (Rattus norvegicus [15]): 0.9 µM | IC50 (Rattus norvegicus [16]): 1.7 µM | ED50 (Rattus norvegicus [17]): > 20 mg/kg | ED50 (Rattus norvegicus [3]): > 25 mg/kg | ED50 (Mus musculus [18]): > 25 mg/kg

CN(C)CCC=C1c2ccccc2CCc2ccccc21 [AMITRIPTYLINE]
ED50 (Rattus norvegicus [19]): 7.1 mg/kg | IC50 [20]: 3 µM | ED50 (Mus musculus [21]): 8 mg/kg | IC50 (Rattus norvegicus [11]): 2 µM | ED50 (Mus musculus [22]): 1.9 mg/kg | IC50 (Rattus norvegicus [23]): 14 µM | IC50 (Rattus norvegicus [24]): 4.7 µM | ED50 (Mus musculus [12]): > 5 mg/kg | ED50 (Mus musculus [25]): 9.6 mg/kg | ED50 (Mus musculus [1]; [26]): 1.5 mg/kg | ED50 (Mus musculus [18]): 1.3 mg/kg

CC1=NC(c2ccccc2)Cc2ccccc2N1 (stereo not given)
ED50 (Mus musculus [1]; [26]): > 20 mg/kg

CC1=NC(c2ccccc2)Cc2ccccc2N1c1ccccc1 (stereo not given)
ED50 (Mus musculus [1]; [26]): > 20 mg/kg

CCCC1=Nc2ccccc2CC(c2ccccc2)N1C (stereo not given)
ED50 (Mus musculus [1]; [26]): > 20 mg/kg

CCCN1C(C)=Nc2ccccc2CC1c1ccccc1 (stereo not given)
ED50 (Mus musculus [1]; [26]): > 5 mg/kg
